Laboratory results: patent publication US6436905B1, “Lipid-containing compositions and uses thereof” (Aston University, priority 1997, dated 2002)
One block for each compound: values may come before it.

Experiment: Pulsating bubble surfactometry: minimum surface tension and time to reach it
Format: physicochemical
Description: One of the most important properties of the polymer/phospholipid complexes in accordance with the invention, especially for use as artificial lung surfactants, is the manner in which the surface tension varies with repetitive changes in surface area, and one test method that has been used is a pulsating bubble technique using a pulsating bubble surfactometer which consists of a sample chamber, pulsator unit and pressure-recording device. In a particular example, the sample chamber is made up of a capillary tube (ID 0.5 mm) inserted into a wider diameter tube (ID 1.5 mm). The latter is filled with the sample liquid and connected to a pulsator unit and pressure transducer. Air is drawn in through the capillary tube which acts as an airways forming a bubble of air within the sample chamber. This bubble serves as a model alveolus. […] Variations of pressure within the bubble, during each pulsation cycle, are measured by a transducer and combined with values of bubble volume to calculate changes in surface tension.
This pulsating bubble technique simulates to some extent the contraction and expansion of the alveoli sacks in the lungs and allows the surface tension to be assessed at minimum and maximum bubble volumes, and allows the effect of repeated expansion and compression cycles upon the adsorption of surface active components to be observed and quantified. This technique has been used as a model in vitro system for testing the efficacy of synthetic lung surfactants. Some results of tests carried out not only on the complexes prepared in accordance with the invention, but also on the membrane-forming phospholipids used and the polymers themselves, as well as on commercially available lung surfactants, are summarised in the Tables at the end of the present description.
Showing minimum Surface Tension (ST) value achieved and time to reach this level.
Pulse Rate (PR)=34, Temp=Room Temp & pH=7.0 unless otherwise stated.

[1] = 1.0%, pH 3.22, PR = 12, room temp
[2] = 1.0%, pH 7.0 (default), PR 34, room temp, 2 hrs hydration
[3] = 1.0%, pH 7.0 (default), PR 34, room temp, 12 hr hydration
[4] = 1.0%, pH 9.33, PR = 12, room temp
[5] = 1.0%, pH 12.00, PR 34, room temp
[6] = […], pH 7.0 (default), PR 34, room temp, Sonicated
[7] = LALE 1.0%, pH 7.0 (default), PR 34, room temp
[8] = DLPC (fresh) sonicated 0.5, pH 3.92, 24.0 °C, pulse rate 30/min
[9] = DLPC (fresh) 0.5, pH 7.12, 25.1 °C, pulse rate 30/min
[10] = DPPC 0.5, pH 4.1, 21.9 °C, pulse rate 30/min
[11] = DPPC (fresh) 0.5, pH 6.3, 24.9 °C, pulse rate 30/min
[12] = DPPC sonicated 0.5, pH 7.3, 23.1 °C, pulse rate 30/min
[13] = DPPC sonicated 0.5, pH 7.3, 37.5 °C, pulse rate 30/min
[14] = DPPC sonicated 0.5, pH 7.3, 24.0 °C, pulse rate 30/min
[15] = DPPC sonicated 0.5, pH 7.3, 37.5 °C, after 40 mins at room temp, pulse rate 30/min

SMILES: CCCCCCCCCCCC(=O)OC[C@H](COP(=O)([O-])OCC[N+](C)(C)C)OC(=O)CCCCCCCCCCC [DLPC, Dilaurylphosphatidylcholine]
Minimal ST [1]: 6.39 dynes/cm
Time to Develop [1]: 30 min
Minimal ST [2]: 6.82 dynes/cm
Time to Develop [2]: 20 min
Minimal ST [3]: 24.89 dynes/cm
Time to Develop [3]: 30 min
Minimal ST [4]: 15.66 dynes/cm
Time to Develop [4]: 30 min
Minimal ST [5]: 15.10 dynes/cm
Time to Develop [5]: 30 min
Minimal ST [6]: 9.60 dynes/cm
Time to Develop [6]: 30 min

SMILES: CCCCCCCCCCCCOC(=O)CCCCCCCCCCC [LALE, Lauric acid lauryl ester]
Minimal ST [7]: 22.61 dynes/cm
Time to Develop [7]: 30 min

SMILES: CCCCCCCCCCCC(=O)OC[C@H](COP(=O)([O-])OCC[N+](C)(C)C)OC(=O)CCCCCCCCCCC [dlf5]
Time to Develop (DLPC (fresh) 0.5, pH 5.47, 24.0 °C, pulse rate 30/min, first line): 20 min
Minimal ST <10 dynes/cm (DLPC (fresh) 0.5, pH 5.47, 24.0 °C, pulse rate 30/min, first line (time 20)): 12.57 dynes/cm
Time to Develop (DLPC (fresh) 0.5, pH 5.47, 24.0 °C, pulse rate 30/min, second line): 40 min
Minimal ST <10 dynes/cm (DLPC (fresh) 0.5, pH 5.47, 24.0 °C, pulse rate 30/min, second line (time 40)): 0.04 dynes/cm

SMILES: CCCCCCCCCCCC(=O)OC[C@H](COP(=O)([O-])OCC[N+](C)(C)C)OC(=O)CCCCCCCCCCC [dlfs4]
Minimal ST <10 dynes/cm [8]: 1.67 dynes/cm
Time to Develop [8]: 10 min

SMILES: CCCCCCCCCCCC(=O)OC[C@H](COP(=O)([O-])OCC[N+](C)(C)C)OC(=O)CCCCCCCCCCC [dlfs7]
Minimal ST <10 dynes/cm [9]: 18.25 dynes/cm
Time to Develop [9]: 20 min

SMILES: CCCCCCCCCCCCCCCC(=O)OC[C@H](COP(=O)([O-])OCC[N+](C)(C)C)OC(=O)CCCCCCCCCCCCCCC [dlpf4]
Minimal ST <10 dynes/cm [10]: 5.31 dynes/cm
Time to Develop [10]: 30 min

SMILES: CCCCCCCCCCCCCCCC(=O)OC[C@H](COP(=O)([O-])OCC[N+](C)(C)C)OC(=O)CCCCCCCCCCCCCCC [dlpf6]
Minimal ST <10 dynes/cm [11]: 16.18 dynes/cm
Time to Develop [11]: 30 min

Next, values leading:

Minimal ST <10 dynes/cm [12]: 20.36 dynes/cm
Time to Develop [12]: 40 min
SMILES: CCCCCCCCCCCCCCCC(=O)OC[C@H](COP(=O)([O-])OCC[N+](C)(C)C)OC(=O)CCCCCCCCCCCCCCC [dlpf7]

Minimal ST <10 dynes/cm [13]: 26.58 dynes/cm
Time to Develop [13]: 2 min
SMILES: CCCCCCCCCCCCCCCC(=O)OC[C@H](COP(=O)([O-])OCC[N+](C)(C)C)OC(=O)CCCCCCCCCCCCCCC [dp7st]

Minimal ST <10 dynes/cm [14]: 9.99 dynes/cm
Time to Develop [14]: 20 min
Minimal ST <10 dynes/cm [15]: 27.95 dynes/cm
Time to Develop [15]: 40 min
SMILES: CCCCCCCCCCCCCCCC(=O)OC[C@H](COP(=O)([O-])OCC[N+](C)(C)C)OC(=O)CCCCCCCCCCCCCCC [dpf7s]
